Experimental data reported in patent US20240124483A1, “Methods for the Treatment of Fibrotic Disease” (SHY Therapeutics, LLC, priority 2021, published 2024).
Where two headings read alike, the source gives them in different places.

Assays:
AKT phosphorylation = experiment: Western AKT Cell-Based Phosphorylation Assay; conditions: Homo sapiens, PANC-1, 6 hours, EGF 1.5 ng/ml, read-out: % inh of AKT phosphorylation in PANC-1
Method: (§1) Human tumor-derived pancreatic cancer cell line Panc-1 was purchased from American Type Culture Collection and grown in complete DMEM-High Glucose supplemented with penicillin (100 U/mL), streptomycin (100 μg/mL), and 10% heat-inactivated FBS at 37° C. in a humidified incubator with 5% CO2.
(§2) Method: Cells were plated at 350000 cells/well density in a 12-well plate, allowed 3 hours to adhere to the plate, then starved in the appropriate medium in the presence of 0.5% FBS overnight. The small molecules to be tested were added to the cells in the final concentration of 10 μM in the presence of 0.3% DMSO for 6 hours incubation at 37° C. Next, cells were stimulated with 1.5 ng/ml EGF for 15 minutes then cells were lysed with lysis buffer containing 1% Triton X-100, EDTA, and Halt™ Protease & Phosphatase Inhibitor Cocktail (Thermo Scientific). Protein concentration was assessed by BCA protein assay (Thermo Scientific). Phosphorylation level of Akt was determined by western blot.
(§3) Western blot protocol: Equal amounts of protein (15-50 μg) were separated by SDS-PAGE and transferred to nitrocellulose membranes (Invitrogen by Thermo Fisher Scientific). The membrane was stained with Ponceau S Stain (Boston BioProducts) to verify uniform protein loading. Membranes were blocked with 10% milk and phosphorylation levels of Akt were assessed by incubating overnight at 4° C. with anti-phospho-Akt (Ser473) antibody (Cell Signaling) followed by HRP-conjugated secondary antibody (Jackson Immunoresearch, West Grove, PA). Bands were incubated in Amersham ECL Prime Western Blotting Detection Reagent (GE Healthcare) and visualized using the ChemiDoc MP imaging system (Bio-Rad).

KRas Q61H mutant = KRas Q61H mutant (Homo sapiens (Human), UniProt P01116, Q61H); experiment: Ras GTP Binding Domain Inhibition Assay, KRas Q61H mutant; conditions: 20 μM
KRas Q61H mutant, sequence (P01116 other isoform, or with tags, fused parts or gaps Q61H): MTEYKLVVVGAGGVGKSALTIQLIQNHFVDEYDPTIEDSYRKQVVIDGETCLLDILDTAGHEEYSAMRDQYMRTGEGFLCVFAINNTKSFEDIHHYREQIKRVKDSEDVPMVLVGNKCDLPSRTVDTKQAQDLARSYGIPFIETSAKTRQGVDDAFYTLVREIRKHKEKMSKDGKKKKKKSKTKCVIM
Method: A Ras Superfamily Activity Assay (as disclosed in International Application No. PCT/US2018/038613, filed Jun. 20, 2018, which is incorporated by reference in its entirety) was used as a specific assay to evaluate compounds against the following for the following Ras Superfamily proteins: KRas wild type, KRas Q61H mutant, KRas G12C mutant, KRas G12D mutant, Rac-1, and Rho-A.
Buffer-I: • 25 mM Tris-HCl, pH 7.4 • 27 mM KCl • 137 mM NaCl • 1 mM MgCl2 • 1 mM DTT
Buffer-II: • 50 mM Tris-HCl, pH 7.0 • 1 mM MgCl2 • 1 mM DTT
The small GTPases proteins: KRas wild type. KRas Q61H mutant, KRas G12C mutant, KRas G12D mutants, Rac-1, and Rho-A were expressed as His-tagged proteins. In addition, the Guanosine nucleotide Exchange Factor (GEF) Sos protein (residues 556-1049) was expressed as a His-tagged protein. In cells, the guanine nucleotide exchange factor Sos protein promotes activation of Ras proteins by stimulating an exchange of GDP for GTP. The inclusion of Sos to the Ras GTP binding domain inhibition assay may be considered as an alternative representation of physiological cellular conditions for evaluating the inhibitory activity of some of the tested small molecules.
For the assay, all purified small GTPases proteins were diluted in Buffer-I or Buffer-II to a final concentration of 10-30 μg/mL. 200 μL of each diluted protein was added to a nickel-coated 96-well plate and incubated overnight at 4° C. Then the protein solution was discarded and 200 μL of Buffer-I or Buffer-II was added to each well in the presence of 1% DMSO. Compounds to be tested were added to the protein-coated wells at final concentration of 20 μM, and incubated for 3 hours at room temperature with and without 10-30 μg/mL of Sos added to the final hour of the incubation. When performing IC50 measurements a serial dilution of all tested concentrations was added. Then Cy3-GTP or Cy5-GTP was added to each well to a final concentration of 100 nM. The labeled GTP was incubated for 45 minutes at room temperature. Following GTP incubation, wells were washed 3× in Buffer-I or Buffer-II and 200 μL of Buffer-I or Buffer-II was added to each well. Following washes, the amount of bound labeled-GTP was measured using a SpectraMax M3 (Molecular Devices).

MiaPaca2 = MiaPaca2 proliferation; assay type: cell-based; conditions: Homo sapiens, MIA PaCa-2; for inhibition at 10 µM: read-out: % inh of proliferation in MiaPaca2
ERK1/2 phosphorylation = experiment: Western ERK1/2 Cell-Based Phosphorylation Assay; conditions: Homo sapiens, PANC-1, 6 hours, EGF 1.5 ng/ml, read-out: % inh of ERK1/2 phosphorylation in PANC-1
Method: as §1, with “Cell lines: Human” for “Human”, “Glucose,” for “Glucose”
as §2, with “C. For IC50 value determination, serial dilutions of compounds were added to cells under the same conditions.” for “C.”, “ERK1/2” for “Akt”
as §3, with “ERK1/2” for “Akt”, “anti-phospho-p44/42 (Thr202/Tyr204)” for “anti-phospho-Akt (Ser473)”

[1] = + SOS, read-out: KRas Q61H mutant + SOS: % inh.
[2] = without SOS, read-out: KRas Q61H mutant: % inh.

Row | Structure (SMILES) | inhibition at 10 µM (AKT phosphorylation) | inhibition at 20 µM (KRas Q61H mutant; [1]) | inhibition at 20 µM (KRas Q61H mutant; [2]) | IC50 (MiaPaca2) | inhibition at 10 µM (MiaPaca2) | inhibition at 10 µM (ERK1/2 phosphorylation)
1 | COc1cc(-c2sc3nc(-c4nccn4C)nc(N[C@@H]4CC[C@@H](OC)C4)c3c2-c2ccccc2)ccn1 (racemic) [Compound 47, N-((1R,3R)-3-Methoxycyclopentyl)-6-(2-methoxypyridin-4-yl)-2-(1-methyl-1H-imidazol-2-yl)-5-phenylthieno[2,3-d]pyrimidin-4-amine] | 76 to 100% | 76 to 100% | 46 to 75% | < 1 µM | 76 to 100% | 76 to 100%
2 | COCCCOc1nc(-c2nccn2C)nc2sc(-c3ccn(C(C)C)n3)c(-c3ccccc3)c12 [Compound 37, 6-(1-Isopropyl-1H-pyrazol-3-yl)-4-(3-methoxypropoxy)-2-(1-methyl-1H-imidazol-2-yl)-5-phenylthieno[2,3-d]pyrimidine] | 0% | 0% | 0% | > 10 µM | 1 to 25% | 0%
3 | Cc1c(-c2ccn(C(C)C)n2)sc2nc(-c3nccn3C)nc(NCCN3CCS(=O)(=O)CC3)c12 [Compound 23, 4-(2-((6-(1-Isopropyl-1H-pyrazol-3-yl)-5-methyl-2-(1-methyl-1H-imidazol-2-yl)thieno[2,3-d]pyrimidin-4-yl)amino)ethyl)thiomorpholine 1,1-dioxide] | 0% | 76 to 100% | 76 to 100% | > 10 µM | 0% | 0%
4 | COCCn1ccc(-c2sc3nc(-c4nccn4C)nc(NC[C@H]4CC[C@H]4COC)c3c2C)n1 (racemic) [Compound 38, rac-6-(1-(2-Methoxyethyl)-1H-pyrazol-3-yl)-N-(((1S,2R)-2-(methoxymethyl)cyclobutyl)methyl)-5-methyl-2-(1-methyl-1H-imidazol-2-yl)thieno[2,3-d]pyrimidin-4-amine] | 0% | 76 to 100% | 46 to 75% | 5 to 10 µM | 76 to 100% | 46 to 75%
5 | COc1cccc(Nc2nc(-c3nccn3C)nc3sc(-c4ccn(C(C)C)n4)c(C)c23)n1 [Compound 18, 6-(1-Isopropyl-1H-pyrazol-3-yl)-N-(6-methoxypyridin-2-yl)-5-methyl-2-(1-methyl-1H-imidazol-2-yl)thieno[2,3-d]pyrimidin-4-amine] | 26 to 45% | 46 to 75% | 46 to 75% | < 1 µM | 76 to 100% | 0%
6 | COCCO[C@H]1CC[C@@H](Nc2nc(-c3nccn3C)nc3sc(-c4ccn(C(C)C)n4)c(C)c23)C1 (racemic) [Compound 20, rac-6-(1-Isopropyl-1H-pyrazol-3-yl)-N-((1R,3S)-3-(2-methoxyethoxy)cyclopentyl)-5-methyl-2-(1-methyl-1H-imidazol-2-yl)thieno[2,3-d]pyrimidin-4-amine] | 26 to 45% | 76 to 100% | 46 to 75% | 1 to 4.99 µM | 76 to 100% | 46 to 75%
7 | COc1cccc(-c2sc3nc(-c4nccn4C)nc(N[C@H]4C[C@H](OC)C4)c3c2-c2ccccc2)c1F [Compound 40, 6-(2-Fluoro-3-methoxyphenyl)-N-((1r,3r)-3-methoxycyclobutyl)-2-(1-methyl-1H-imidazol-2-yl)-5-phenylthieno[2,3-d]pyrimidin-4-amine] | 76 to 100% | 76 to 100% | 76 to 100% | 1 to 4.99 µM | 76 to 100% | 76 to 100%
8 | COc1cccc(Nc2nc(-c3nccn3C)nc3sc(-c4ccn(C(C)C)n4)c(C)c23)c1 [Compound 17, 6-(1-Isopropyl-1H-pyrazol-3-yl)-N-(3-methoxyphenyl)-5-methyl-2-(1-methyl-1H-imidazol-2-yl)thieno[2,3-d]pyrimidin-4-amine] | 46 to 75% | 46 to 75% | 26 to 45% | 5 to 10 µM | 76 to 100% | 76 to 100%
9 | COc1nccc(-c2sc3nc(-c4nccn4C)nc(N[C@H]4C[C@H](OC)C4)c3c2-c2ccccc2)c1F [Compound 45, 6-(3-Fluoro-2-methoxypyridin-4-yl)-N-((1r,3r)-3-methoxycyclobutyl)-2-(1-methyl-1H-imidazol-2-yl)-5-phenylthieno[2,3-d]pyrimidin-4-amine] | 76 to 100% | 76 to 100% | 46 to 75% | 1 to 4.99 µM | 76 to 100% | 76 to 100%
10 | COC1CCCN(c2nc(-c3nccn3C)nc3sc(-c4ccn(C(C)C)n4)c(C)c23)C1 (racemic) [Compound 14, rac-6-(1-Isopropyl-1H-pyrazol-3-yl)-4-(3-methoxypiperidin-1-yl)-5-methyl-2-(1-methyl-1H-imidazol-2-yl)thieno[2,3-d]pyrimidine] | 46 to 75% | 76 to 100% | 26 to 45% | 5 to 10 µM | 76 to 100% | 76 to 100%
11 | CO[C@H]1CC[C@@H](Nc2nc(-c3nccn3C)nc3sc(-c4ccn(C)n4)c(-c4ccccc4)c23)C1 (racemic) [Compound 5, rac-N-((1R,3S)-3-Methoxycyclopentyl)-2-(1-methyl-1H-imidazol-2-yl)-6-(1-methyl-1H-pyrazol-3-yl)-5-phenylthieno[2,3-d]pyrimidin-4-amine] |  | 76 to 100% | 26 to 45% |  |  | 
